Reference: BindingDB's records for doi:10.1074/jbc.M114.553248 (National Taiwan University, 2014)

How the values were obtained:
[1] = biological target: Isoform A1-A of Heterogeneous nuclear ribonucleoprotein A1 (A1-A) (Homo sapiens, UniProt P09651); assay: Surface Plasmon Resonance (SPR) Assay; conditions: pH 4
Description: (§1) Recombinant full-length hnRNPA1 (aa 1-320) and truncated versions of hnRNPA1, including the N-terminal RNA binding domain (aa 1-196), the middle region (aa 182-268), and the C-terminal region (aa 268-320), were individually covalently coupled to a dextran matrix (CM5 chip) using a Biacore T200 system (GE Healthcare), following the manufacturer's protocols. Immobilized proteins were activated with N-hydroxysuccinimide and 1-ethyl-3-(3-dimethylaminopropyl) carbodiimide to form a […] between carboxyl moieties on the dextran and […] on the protein. hnRNPA1 variants were dissolved in 10 mM acetate buffer (full-length, pH 4; N-terminal RNA binding domain and the C-terminal region, pH 4.5; middle region, pH 5) to a concentration of 20 μg/ml and flowed over the activated surface for 5 min with PBS. Unreacted groups were blocked with ethanolamine. PBS containing 0.05% (v/v) P20 (surfactant) and 5% DMSO was used for priming and conditioning the surface of the chips. Quercetin was serially diluted (from 200 to 3 μM) in PBS buffer and maintained in DMSO (5% (v/v)) (final concentrations from 10 to 0.15 μM). The baseline response was determined for 120 s (30 μl/min) before perfusing the immobilized proteins with the compounds to allow association to occur. Dissociation was then monitored over a period of an additional 120 s. […]

[2] = biological target: Isoform A1-A of Heterogeneous nuclear ribonucleoprotein A1 (A1-A) 68-320] (Homo sapiens, UniProt P09651); assay: Surface Plasmon Resonance (SPR) Assay; conditions: pH 4
Description: as §1

Isoform A1-A of Heterogeneous nuclear ribonucleoprotein A1 (A1-A), sequence (P09651 as listed by the source): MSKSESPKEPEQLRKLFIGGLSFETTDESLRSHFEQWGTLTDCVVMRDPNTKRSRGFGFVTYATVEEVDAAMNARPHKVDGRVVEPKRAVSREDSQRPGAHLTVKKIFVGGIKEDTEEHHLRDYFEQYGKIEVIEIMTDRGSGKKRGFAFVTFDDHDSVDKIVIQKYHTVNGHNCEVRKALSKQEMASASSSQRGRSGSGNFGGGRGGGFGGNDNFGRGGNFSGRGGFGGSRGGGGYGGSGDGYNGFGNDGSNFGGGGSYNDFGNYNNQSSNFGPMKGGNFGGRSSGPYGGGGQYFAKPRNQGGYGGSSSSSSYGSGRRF
Isoform A1-A of Heterogeneous nuclear ribonucleoprotein A1 (A1-A) 68-320], sequence (P09651 320-372): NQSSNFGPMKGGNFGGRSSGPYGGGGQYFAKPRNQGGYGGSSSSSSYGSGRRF

Q: How did the Kd [1] turn out when `O=c1c(O)c(-c2ccc(O)c(O)c2)oc2cc(O)cc(O)c12` [2-(3,4-dihydroxyphenyl)-3,5,7-trihydroxy-chromone;hydrate] was run?
A: Its Kd is 8.9 µM.

Q: What about the Kd [2] of the same compound?
A: The Kd was 1.7 µM.
